# Measurements from article PMC9403976, “Elucidating the path to Plasmodium prolyl-tRNA synthetase inhibitors that overcome halofuginone resistance” (Nature Communications, 2022).
# Several values for one entry are separate records, joined by “and”; a condition that tells them apart may be missing. Identical values can stand only once.
# How the values were obtained:
# [1] = test system: halofuginone-induced P. falciparum (elevated proline homeostasis); assay: P. falciparum ABS growth assay, SYBR Green, 72 h, halofuginone-induced parasites; format: cell-based, Plasmodium falciparum; conditions: Halofuginone-Induced (HFG-Induced)
# Outline: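 Dd2-derived erythrocytic-stage parasites at 1% parasitemia and 1% hematocrit in RPMI + 0.5% Albumax were exposed to compounds in triplicate dose-response. Controls were 10 μM dihydroartemisinin (kill) and no-compound wells (growth). Growth was read by SYBR Green 1 fluorescence after 72 h and used to derive EC50.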
# [2] = target: HsProRS (Homo sapiens, UniProt P07814); assay: TR-FRET ligand displacement assay with tracer MAT379 (CoraFluor-1-Halo and anti-His6 antibody formats); format: binding; set-up: made in house; host or cells: E. coli SoluBL-21; conditions: for Kd: 250 nM MAT379; for TR-FRET dose-response, normalized signal (SI Fig 11): individual replicates
# HsProRS, sequence (P07814 996-1512): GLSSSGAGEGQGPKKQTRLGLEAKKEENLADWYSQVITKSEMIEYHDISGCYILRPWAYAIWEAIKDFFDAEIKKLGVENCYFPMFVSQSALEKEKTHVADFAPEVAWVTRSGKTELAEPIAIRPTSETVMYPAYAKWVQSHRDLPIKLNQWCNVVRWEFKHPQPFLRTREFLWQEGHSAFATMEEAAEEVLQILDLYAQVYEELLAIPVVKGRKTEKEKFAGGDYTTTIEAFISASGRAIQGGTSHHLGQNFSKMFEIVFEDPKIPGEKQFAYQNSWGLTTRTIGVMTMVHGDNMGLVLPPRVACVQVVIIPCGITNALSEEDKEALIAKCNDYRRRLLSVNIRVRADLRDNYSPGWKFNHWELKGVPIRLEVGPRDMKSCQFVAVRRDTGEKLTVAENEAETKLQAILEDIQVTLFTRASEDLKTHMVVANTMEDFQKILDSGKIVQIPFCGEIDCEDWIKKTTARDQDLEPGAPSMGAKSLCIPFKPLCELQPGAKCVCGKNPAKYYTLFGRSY
structure (smiles),measurement,setting,value
CC(C)(C)OC(=O)N[C@H]1CC[C@@H](C(=O)Nc2nccnc2C(=O)NC2Cc3ccccc3C2)CC1 [compound 6],"ABS growth dose-response, normalized signal (Replicates 1-3)",[1]; Log[inhibitor] (M) -6.806,93 and 91 and 99
same,"ABS growth dose-response, normalized signal (Replicates 1-3)",[1]; Log[inhibitor] (M) -7.107,91 and 93 and 96
same,"ABS growth dose-response, normalized signal (Replicates 1-3)",[1]; Log[inhibitor] (M) -7.408,96 and 93 and 99
same,"ABS growth dose-response, normalized signal (Replicates 1-3)",[1]; Log[inhibitor] (M) -7.709,100 and 98 (2×)
same,"ABS growth dose-response, normalized signal (Replicates 1-3)",[1]; Log[inhibitor] (M) -8.010,99 (2×) and 97
same,"ABS growth dose-response, normalized signal (Replicates 1-3)",[1]; Log[inhibitor] (M) -8.311,98 and 97 and 96
same,Kd,"[2]; HsProRS (KD [nM]) + proline, 100 μM proline",82.7 nM
same,Kd,"[2]; HsProRS (KD [nM]) −, absence of substrates",56.8 nM
same,"normalized TR-FRET ligand displacement signal, dose-response replicates (SI Fig 6)",[2]; Log[inhibitor] (M) -5.000,-9.02E-03 and -3.85E-02 and -4.81E-02
same,"TR-FRET dose-response, normalized signal (SI Fig 11)",[2]; Log[inhibitor] (M) -5.000,-2.98E-03 and 2.00E-02 and -3.48E-02
same,"normalized TR-FRET ligand displacement signal, dose-response replicates (SI Fig 6)",[2]; Log[inhibitor] (M) -5.301,1.39E-03 and -1.19E-02 and 6.50E-02
same,"TR-FRET dose-response, normalized signal (SI Fig 11)",[2]; Log[inhibitor] (M) -5.301,-9.84E-03 and -1.64E-02 and -3.17E-02
same,"normalized TR-FRET ligand displacement signal, dose-response replicates (SI Fig 6)",[2]; Log[inhibitor] (M) -5.601,3.06E-03 and 6.60E-02 and -6.88E-02
same,"TR-FRET dose-response, normalized signal (SI Fig 11)",[2]; Log[inhibitor] (M) -5.601,1.87E-02 and 1.41E-03 and 1.94E-02
same,"normalized TR-FRET ligand displacement signal, dose-response replicates (SI Fig 6)",[2]; Log[inhibitor] (M) -5.904,1.31E-01 and 8.92E-02 and 1.65E-02
same,"TR-FRET dose-response, normalized signal (SI Fig 11)",[2]; Log[inhibitor] (M) -5.904,4.76E-02 and 6.37E-02 and 6.71E-02
same,"normalized TR-FRET ligand displacement signal, dose-response replicates (SI Fig 6)",[2]; Log[inhibitor] (M) -6.208,8.21E-02 and 1.14E-01 and 9.74E-02
same,"TR-FRET dose-response, normalized signal (SI Fig 11)",[2]; Log[inhibitor] (M) -6.208,1.11E-01 and 9.52E-02 and 8.68E-02
same,"normalized TR-FRET ligand displacement signal, dose-response replicates (SI Fig 6)",[2]; Log[inhibitor] (M) -6.509,3.32E-01 and 2.13E-01 and 2.09E-01
same,"TR-FRET dose-response, normalized signal (SI Fig 11)",[2]; Log[inhibitor] (M) -6.509,1.70E-01 and 1.88E-01 and 1.94E-01
same,"normalized TR-FRET ligand displacement signal, dose-response replicates (SI Fig 6)",[2]; Log[inhibitor] (M) -6.796,3.90E-01 and 3.58E-01 and 4.40E-01
same,"TR-FRET dose-response, normalized signal (SI Fig 11)",[2]; Log[inhibitor] (M) -6.796,3.16E-01 and 2.94E-01 and 3.43E-01
same,"normalized TR-FRET ligand displacement signal, dose-response replicates (SI Fig 6)",[2]; Log[inhibitor] (M) -7.108,6.29E-01 and 5.81E-01 and 6.23E-01
same,"TR-FRET dose-response, normalized signal (SI Fig 11)",[2]; Log[inhibitor] (M) -7.108,5.24E-01 and 5.07E-01 and 4.16E-01
same,"normalized TR-FRET ligand displacement signal, dose-response replicates (SI Fig 6)",[2]; Log[inhibitor] (M) -7.409,7.27E-01 and 7.69E-01 and 8.30E-01
same,"TR-FRET dose-response, normalized signal (SI Fig 11)",[2]; Log[inhibitor] (M) -7.409,6.04E-01 and 6.96E-01 and 6.63E-01
same,"normalized TR-FRET ligand displacement signal, dose-response replicates (SI Fig 6)",[2]; Log[inhibitor] (M) -7.710,8.52E-01 and 7.93E-01 and 9.04E-01
same,"TR-FRET dose-response, normalized signal (SI Fig 11)",[2]; Log[inhibitor] (M) -7.710,7.36E-01 and 7.44E-01 and 7.53E-01
same,"normalized TR-FRET ligand displacement signal, dose-response replicates (SI Fig 6)",[2]; Log[inhibitor] (M) -8.000,8.26E-01 and 9.38E-01 and 9.73E-01
same,"TR-FRET dose-response, normalized signal (SI Fig 11)",[2]; Log[inhibitor] (M) -8.000,8.98E-01 and 8.12E-01 and 7.76E-01
same,"normalized TR-FRET ligand displacement signal, dose-response replicates (SI Fig 6)",[2]; Log[inhibitor] (M) -8.301,9.79E-01 and 9.47E-01 and 1.01E+00
same,"TR-FRET dose-response, normalized signal (SI Fig 11)",[2]; Log[inhibitor] (M) -8.301,8.89E-01 and 8.40E-01 and 9.15E-01
same,"normalized TR-FRET ligand displacement signal, dose-response replicates (SI Fig 6)",[2]; Log[inhibitor] (M) -8.602,9.42E-01 and 9.96E-01 and 9.03E-01
same,"TR-FRET dose-response, normalized signal (SI Fig 11)",[2]; Log[inhibitor] (M) -8.602,9.56E-01 and 8.65E-01 and 9.25E-01
same,"normalized TR-FRET ligand displacement signal, dose-response replicates (SI Fig 6)",[2]; Log[inhibitor] (M) -9.000,9.97E-01 and 9.50E-01 and 8.98E-01
same,"TR-FRET dose-response, normalized signal (SI Fig 11)",[2]; Log[inhibitor] (M) -9.000,9.29E-01 and 9.09E-01 and 9.22E-01
same,"normalized TR-FRET ligand displacement signal, dose-response replicates (SI Fig 6)",[2]; Log[inhibitor] (M) -9.301,1.05E+00 and 9.90E-01 and 1.06E+00
same,"TR-FRET dose-response, normalized signal (SI Fig 11)",[2]; Log[inhibitor] (M) -9.301,9.30E-01 and 9.49E-01 and 9.75E-01
